Laboratory results taken from paper PMC9822133, “Design, Synthesis and Antiproliferative Evaluation of Bis-Indole Derivatives with a Phenyl Linker: Focus on Autophagy” (Molecules, 2022).

Columns and labels:
[1] = system: BLM; assay: MTT screening assay, BLM; format: cell-based; details: Homo sapiens, 72 h incubation
[2] = system: Phospho-AMPKα; assay: Western blot, phospho-AMPK; format: cell-based, human; details: A549, 24, 48, 72 h
Text: ULK1/AMPK. ULK1 is a serine/threonine protein kinase. The ULK1 complex controls the formation of the phagophore, the initial autophagosomal precursor membrane structure. Upon induction of autophagy, the ULK1 complex translocates to autophagy initiation sites and regulates the recruitment of a second kinase complex, VPS34. ULK1 can be inhibited by phosphorylation by mammalian target of rapamycin complex 1 (mTORC1) or activated after AMP-activated protein kinase (AMPK) phosphorylation. Under conditions of nutrient deficiency, AMPK is activated, which directly activates ULK1. The kinase is phosphorylated, i.e., activated by an increased AMP/ATP ratio due to cellular and environmental stress. AMPK also inactivates mTORC1 and thus blocks its inhibitory action on autophagy activation.
(§1) A549 cells were seeded on Petri dishes (55 cm^2) at a density of 1 × 10^6 and allowed to culture in the medium. After 24 h, the test substance was added, and the cells were incubated for 24, 48 and 72 h. […] After lysis, the cells were sonicated, and the protein concentration in the samples was quantified using the Pierce® BCA Protein Assay Kit (Thermo Scientific, Rockford, IL, USA) and measured by an automated Cytation™ 3 Cell Imaging Multi-Mode Reader (Biotek) at a wavelength of 570 nm. […]

[3] = system: LC3A/B; assay: Western blot, LC3A/B; format: cell-based, human; details: A549, all time periods
Text: LC3A/B, a microtubule-associated protein 1A/1B-light chain 3 (LC3), is a soluble intracellular protein. After synthesis of the pro-LC3 protein, this protein is first cleaved to form its cytosolic form known as LC3-I. The cytosolic form of LC3 (LC3-I) conjugates with phosphatidylethanolamine to form the LC3-phosphatidylethanolamine conjugate (LC3-II), which is recruited to autophagosomal membranes. After the formation of autophagosomes, their fusion with lysosomes occurs, autolysosomes are formed, and intra-autophagosomal material (cytoplasmic components including cytosolic proteins and organelles) is degraded by lysosomal hydrolases. Changes in the levels of the autophagosomal marker LC3-II are considered a sign of ongoing autophagy, and its lysosomal turnover thus reflects autophagic activity. […] Association of LC3A/B up-regulation and autophagy induction has also been referred previously.
as §1

[4] = system: superoxide dismutase (SOD); assay: SOD activity in treated A549 cells; format: cell-based, human; details: A549, 20 µM
Text: (§2) Glutathione is an important intracellular molecule involved in carcinogen detoxification. On the other hand, its elevated state in cancer cells is often associated with resistance to chemotherapy. […] Because high levels of GSH are associated with cancer cell resistance, the GHS-depleting effect of compound 49 could be interesting due to new cancer chemosensitizer development. In the case of GST and GR, we hypothesize that an increase in the activity of both enzymes may be a compensatory mechanism induced by GSH depletion.
(§3) Both floating and adherent A549 cells were harvested at 24, 48, and 72 h after treatment with compound 49 (20 µM). SOD determination kit, Glutathione Peroxidase Cellular Activity Assay kit, Glutathione Reductase Assay Kit and Glutathione-S-transferase (GST) Assay Kit (all Sigma Aldrich, Germany) were used for the detection of relevant enzyme activity. Reduced glutathione (GSH) content was measured by the method originally described by Floreani et al.. Assays were performed on an M 501 single beam UV/VIS spectrophotometer (Spectronic Camspec Ltd., Leeds, United Kingdom). All measured parameters were calculated per milligram or gram of protein determined using the bicinchoninic acid assay.

[5] = system: glutathione (GSH); assay: GSH content in treated A549 cells; format: cell-based, human; details: A549, 20 µM
Text: as §2, §3

[6] = system: A549 cells; assay: MTT assay with chloroquine combination; format: cell-based, human; details: 49 20 μM + CQ 5, 10 and 20 μM, 72 h
Procedure: The MTT assay is a colorimetric method used to quantify the metabolic activity of cells. MTT (3-(4,5-di-methylthiazol-2-yl)2,5-diphenyltetrazolium bromide) (Sigma-Aldrich Chemie, Steinheim, Germany) is reduced by oxidoreductases in the cytosol of cells to light-absorbing formazan, the presence of which can be measured spectrophotometrically and determines the half-maximal inhibitory concentration (IC50). A549 cells were seeded in […] culture plates at a density of 5 × 10^3 per well. […]
We also incubated the cells with chloroquine at concentrations of 5–20 µM, which was added 1 h before the addition of the test substance, and cisplatin at concentrations of 3–10 µM. Cisplatin was added 24 h after the addition of 49. After 72 h of incubation, 10 µL of MTT (5 mg/mL) was added to each well. After 4 h, formazan crystals formed in the wells, which were dissolved in 100 uL of 10% SDS (sodium dodecyl sulfate). After 24 h, the absorbance was measured at a wavelength of 540 nm using an automated Cytation™ 3 Cell Imaging Multi-Mode Reader (Biotek, Winooski, VT, USA). These experiments were performed in three independent replicates.

SMILES: CC(C)(C)OC(=O)n1cc(CNC(=O)Nc2ccc(NC(=O)NCc3cn(C(=O)OC(C)(C)C)c4ccccc34)cc2)c2ccccc21 [Compound 49, N,N′-(1,4-phenylene)bis{N′-[1-(tert-butoxycarbonyl)indol-3-yl]methyl (urea)}]
- IC50 [1]: > 100 µM
- phosphorylated form of AMPK [2]: significant increase
- LC3A/B protein expression [3]: significantly increased
- SOD ([4]; 24 h): 0.408 ± 0.24 μkat/mg Prot
- SOD ([4]; 48 h): 0.526 ± 0.27 μkat/mg Prot
- SOD ([4]; 72 h): 0.523 ± 0.38 μkat/mg Prot
- GSH ([5]; 24 h): 0.395 ± 0.043 nmol/mg Prot
- GSH ([5]; 48 h): 0.107 ± 0.015 nmol/mg Prot
- GSH ([5]; 72 h): 0.228 ± 0.062 nmol/mg Prot
- effect of chloroquine co-treatment on the antiproliferative effect of compound 49 (A549 cell survival) [6]: significantly potentiated
